Measured values reported in article PMC10385824, “Antiproliferative and Tubulin-Destabilising Effects of 3-(Prop-1-en-2-yl)azetidin-2-Ones and Related Compounds in MCF-7 and MDA-MB-231 Breast Cancer Cells” (Pharmaceuticals, 2023).
Read-outs that look alike come from different tables or passages of the source.

Tests used:
DU-145 = test: NCI-60 SRB screen, prostate cancer; type: cell-based, human; conditions: DU-145, 48 h; for GI50: Homo sapiens, five dose 0.01–100 µM, read-out: GI50
HOP-92 = test: NCI-60 SRB screen, non-small cell lung cancer; type: cell-based, human; conditions: HOP-92, 48 h; for GI50: Homo sapiens, five dose 0.01–100 µM, read-out: GI50
SNB-19 = test: NCI-60 SRB screen, CNS cancer; type: cell-based, human; conditions: SNB-19, 48 h; for GI50: Homo sapiens, five dose 0.01–100 µM, read-out: GI50
SR = test: NCI-60 SRB screen, leukemia; type: cell-based, human; conditions: 48 h; for GI50: Homo sapiens, five dose 0.01–100 µM, read-out: GI50
HCT-15 = test: NCI-60 SRB screen, colon cancer; type: cell-based, human; conditions: HCT-15, 48 h; for GI50: Homo sapiens, five dose 0.01–100 µM, read-out: GI50
A498 = test: NCI-60 SRB screen, renal cancer; type: cell-based, human; conditions: A498, 48 h; for GI50: Homo sapiens, five dose 0.01–100 µM, read-out: GI50
OVCAR-8 = test: NCI-60 SRB screen, ovarian cancer; type: cell-based, human; conditions: OVCAR-8, 48 h; for GI50: Homo sapiens, five dose 0.01–100 µM, read-out: GI50
COLO 205 = test: NCI-60 SRB screen, colon cancer; type: cell-based, human; conditions: COLO 205, 48 h; for GI50: Homo sapiens, five dose 0.01–100 µM, read-out: GI50
CCRF-CEM = test: NCI-60 SRB screen, leukemia; type: cell-based; conditions: Homo sapiens, five dose 0.01–100 µM, 48 h, read-out: GI50
NCI-H23 = test: NCI-60 SRB screen, non-small cell lung cancer; type: cell-based, human; conditions: NCI-H23, 48 h; for GI50: Homo sapiens, five dose 0.01–100 µM, read-out: GI50
T-47D = test: NCI-60 SRB screen, breast cancer; type: cell-based, human; conditions: T-47D, 48 h; for GI50: Homo sapiens, T47D, five dose 0.01–100 µM, read-out: GI50
OVCAR-4 = test: NCI-60 SRB screen, ovarian cancer; type: cell-based, human; conditions: OVCAR-4, 48 h; for GI50: Homo sapiens, five dose 0.01–100 µM, read-out: GI50
MDA-MB-435 = test: NCI-60 SRB screen, melanoma; type: cell-based, human; conditions: MDA-MB-435, 48 h; for GI50: Homo sapiens, five dose 0.01–100 µM, read-out: GI50
RXF 393 = test: NCI-60 SRB screen, renal cancer; type: cell-based, human; conditions: RXF 393, 48 h; for GI50: Homo sapiens, five dose 0.01–100 µM, read-out: GI50
LOX IMVI = test: NCI-60 SRB screen, melanoma; type: cell-based, human; conditions: 48 h; for GI50: Homo sapiens, five dose 0.01–100 µM, read-out: GI50
SNB-75 = test: NCI-60 SRB screen, CNS cancer; type: cell-based, human; conditions: SNB-75, 48 h; for GI50: Homo sapiens, five dose 0.01–100 µM, read-out: GI50
IGROV1 = test: NCI-60 SRB screen, ovarian cancer; type: cell-based, human; conditions: IGROV1, 48 h; for GI50: Homo sapiens, IGROV-1, five dose 0.01–100 µM, read-out: GI50
M14 = test: NCI-60 SRB screen, melanoma; type: cell-based, human; conditions: M14, 48 h; for GI50: Homo sapiens, five dose 0.01–100 µM, read-out: GI50
HL-60(TB) = test: NCI-60 SRB screen, leukemia; type: cell-based, human; conditions: for GI50: Homo sapiens
SK-MEL-2 = test: NCI-60 SRB screen, melanoma; type: cell-based, human; conditions: SK-MEL-2, 48 h; for GI50: Homo sapiens, five dose 0.01–100 µM, read-out: GI50
UACC-62 = test: NCI-60 SRB screen, melanoma; type: cell-based, human; conditions: UACC-62, 48 h; for GI50: Homo sapiens, five dose 0.01–100 µM, read-out: GI50
[1] = tested on: purified bovine brain tubulin; test: Tubulin polymerization assay (light scattering, BK006 kit); type: biochemical; conditions: compound at 10 μM; relative to vehicle
Method in brief: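 Compounds tested at 10 µM against vehicle (1% DMSO or EtOH) with bovine brain tubulin, 3 mg/mL, in pH 6.9 PIPES buffer containing 1 mM GTP and 10% glycerol, 37 °C. Light scattering at 340 nm tracked microtubule formation; average of two independent runs reported.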

A549/ATCC = test: NCI-60 SRB screen, non-small cell lung cancer; type: cell-based, human; conditions: 48 h; for GI50: Homo sapiens, A549/ATCC, five dose 0.01–100 µM, read-out: GI50
UO-31 = test: NCI-60 SRB screen, renal cancer; type: cell-based, human; conditions: UO-31, 48 h; for GI50: Homo sapiens, five dose 0.01–100 µM, read-out: GI50
NCI-H332M = test: NCI-60 SRB screen, non-small cell lung cancer; type: cell-based; conditions: Homo sapiens, five dose 0.01–100 µM, 48 h, read-out: GI50
K-562 = test: NCI-60 SRB screen, leukemia; type: cell-based, human; conditions: for GI50: Homo sapiens, K562, 48 h, read-out: GI50
SF539 = test: NCI-60 SRB screen, CNS cancer; type: cell-based, human; conditions: SF-539, 48 h
HT29 = test: NCI-60 SRB screen, colon cancer; type: cell-based, human; conditions: HT29, 48 h; for GI50: Homo sapiens, HT-29, five dose 0.01–100 µM, read-out: GI50
BT-549 = test: NCI-60 SRB screen, breast cancer; type: cell-based, human; conditions: BT-549, 48 h; for GI50: Homo sapiens, five dose 0.01–100 µM, read-out: GI50
[2] = HL-60(TB), five dose 0.01–100 µM, 48 h

C=C(C)C1C(=O)N(c2cc(OC)c(OC)c(OC)c2)C1c1ccc(OC)c(O)c1 (stereo not shown) [9q, 4-(3-Hydroxy-4-methoxyphenyl)-1-(3,4,5-trimethoxyphenyl)-3-(prop-1-en-2-yl)azetidin-2-one]
% Growth (DU-145; one dose 10 µM): -52.00%
GI50 (DU-145): 21.5 nM
% Growth (HOP-92; one dose 10 µM): 16.15%
GI50 (HOP-92): 15.4 nM
GI50 (SNB-19): 58.8 nM
% Growth (SNB-19; one dose 10 µM): 37.93%
GI50 (SR): < 10 nM
% Growth (SR; one dose 10 µM): -2.84%
% Growth (HCT-15; one dose 10 µM): 15.23%
GI50 (HCT-15): 29.9 nM
% Growth (A498; one dose 10 µM): -13.19%
GI50 (A498): < 10 nM
GI50 (OVCAR-8): < 10 nM
% Growth (OVCAR-8; one dose 10 µM): 14.64%
% Growth (COLO 205; one dose 10 µM): -27.00%
GI50 (COLO 205): 284 nM
GI50 (CCRF-CEM): 19.2 nM
GI50 (NCI-H23): 23.7 nM
% Growth (NCI-H23; one dose 10 µM): 14.46%
GI50 (T-47D): > 100000 nM
% Growth (T-47D; one dose 10 µM): 67.35%
GI50 (OVCAR-4): < 10 nM
% Growth (OVCAR-4; one dose 10 µM): 25.51%
GI50 (MDA-MB-435): < 10 nM
% Growth (MDA-MB-435; one dose 10 µM): -13.45%
GI50 (RXF 393): 42.8 nM
% Growth (RXF 393; one dose 10 µM): 18.79%
GI50 (LOX IMVI): < 10 nM
% Growth (LOX IMVI; one dose 10 µM): 30.61%
GI50 (SNB-75): 47.3 nM
% Growth (SNB-75; one dose 10 µM): 41.90%
GI50 (IGROV1): 32.2 nM
% Growth (IGROV1; one dose 10 µM): 29.32%
GI50 (M14): 17.3 nM
% Growth (M14; one dose 10 µM): 3.41%
% Growth (HL-60(TB); HL-60(TB), one dose 10 µM, 48 h): -51.24%
GI50 (HL-60(TB); [2]): 21.1 nM
GI50 (HL-60(TB); HL-60, NCI screen): < 34 nM
GI50 (SK-MEL-2): 44.6 nM
% Growth (SK-MEL-2; one dose 10 µM): 9.55%
GI50 (UACC-62): < 10 nM
% Growth (UACC-62; one dose 10 µM): 38.81%
Fold Reduction in Vmax [1]: 4.27
% Growth (A549/ATCC; A549/A TCC, one dose 10 µM): 14.76%
GI50 (A549/ATCC): 27.8 nM
GI50 (UO-31): 87.8 nM
% Growth (UO-31; one dose 10 µM): 29.39%
GI50 (NCI-H332M; […]): 47.7 nM
GI50 (K-562): 35.2 nM
% Growth (K-562; K-562, one dose 10 µM, 48 h): 2.20%
% Growth (SF539; one dose 10 µM): -8.30%
% Growth (HT29; one dose 10 µM): 2.66%
GI50 (HT29): 187 nM
% Growth (BT-549; one dose 10 µM): -9.94%
GI50 (BT-549): 11 nM

C=CCC1C(=O)N(c2cc(OC)c(OC)c(OC)c2)C1c1ccc(OC)c(O)c1 (stereo not shown) [10p, 4-(3-Hydroxy-4-methoxyphenyl)-1-(3,4,5-trimethoxyphenyl)-3-allylazetidin-2-one]
GI50 (DU-145): 26.6 nM
GI50 (HOP-92): 23.8 nM
GI50 (SNB-19): 58.9 nM
GI50 (SR): 31.4 nM
GI50 (HCT-15): 36.7 nM
GI50 (A498): 17.5 nM
GI50 (OVCAR-8): 34 nM
GI50 (COLO 205): 563 nM
GI50 (CCRF-CEM): 36.1 nM
GI50 (NCI-H23): 30.7 nM
GI50 (T-47D): 63500 nM
GI50 (OVCAR-4): 39.7 nM
GI50 (MDA-MB-435): 20.5 nM
GI50 (RXF 393): 41 nM
GI50 (LOX IMVI): 33.9 nM
GI50 (SNB-75): 44.8 nM
GI50 (IGROV1): 44.8 nM
GI50 (M14): 17.6 nM
GI50 (HL-60(TB); [2]): 32.3 nM
GI50 (HL-60(TB); HL-60, NCI screen): < 34 nM
GI50 (SK-MEL-2): 301 nM
GI50 (UACC-62): 32 nM
Fold Reduction in Vmax [1]: 4.5
GI50 (A549/ATCC): 37.3 nM
GI50 (UO-31): 85.8 nM
GI50 (NCI-H332M): 51.2 nM
GI50 (K-562): 43.1 nM
GI50 (SF539; Homo sapiens, SF539, five dose 0.01–100 µM, read-out: GI50): 38.2 nM
GI50 (HT29): 360 nM
GI50 (BT-549): 18.8 nM
